Experimental data: US20180179198A1, “TRICYCLIC MODULATORS OF TNF SIGNALING” (AbbVie Inc., priority 2015, published 2018)

The molecules below were run against TNFα trimer (Homo sapiens, UniProt P01375) (assay: TNFα FP Competitive Binding Assay). Conditions: TNFα FP competitive binding assay; class symbols A/B/C; read-out: TNF IC50.
TNFα trimer, sequence (P01375 77-233 limits assumed): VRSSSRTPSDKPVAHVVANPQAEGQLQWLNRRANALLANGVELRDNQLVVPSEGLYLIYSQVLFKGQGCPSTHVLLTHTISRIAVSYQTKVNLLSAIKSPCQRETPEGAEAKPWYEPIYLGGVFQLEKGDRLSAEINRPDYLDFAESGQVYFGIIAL
Procedure, shortened: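 Compounds, 12-point 1:3 dilutions topping at 100 μM (2.0% DMSO) or 338 μM (3.4% DMSO) final, compete with 1 nM fluorescent probe for 20 nM TNFα trimer in HEPES/NaCl/EDTA/Triton buffer. After 18-24 h incubation at 37 °C plus 1 h rt equilibration, background-subtracted polarization is read and fitted with variable slope.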
`C[C@H]1CN(c2ncc(-c3ccc4nc5n(c4n3)C3(COC5)COc4ccccc43)cn2)CCN1C(=O)COC(C)(C)C` (stereo partly drawn) [BG.3, 2-(tert-Butoxy)-1-((2S)-4-(5-(6′,8′-dihydro-2H-spiro[benzofuran-3,9′-pyrido[3′,2′:4,5]imidazo[2,1-c][1,4]oxazin]-2′-yl)pyrimidin-2-yl)-2-methylpiperazin-1-yl)ethanone] showed an IC50 of 1000 to 10000 nM. `C[C@H]1CN(C(=O)COC(C)(C)C)CCN1c1ncc(-c2ccc3nc4n(c3n2)C2(COC4)COc3ccccc32)cn1` (stereo partly drawn) [BG.4, 1-((3S)-4-(5-(2H,6′H,8′H-Spiro[benzofuran-3,9′-pyrido[3′,2′:4,5]imidazo[2,1-c][1,4]oxazin]-2′-yl)pyrimidin-2-yl)-3-methylpiperazin-1-yl)-2-(tert-butoxy)ethan-1-one] gave an IC50 of 1000 to 10000 nM. In the case of `C[C@@H]1CN(C(=O)COC(C)(C)C)CCN1c1ncc(-c2ccc3nc4n(c3n2)C2(COC4)COc3ccccc32)cn1` (stereo partly drawn) [BG.5, 1-((3R)-4-(5-(2H,6′H,8′H-Spiro[benzofuran-3,9′-pyrido[3′,2′:4,5]imidazo[2,1-c][1,4]oxazin]-2′-yl)pyrimidin-2-yl)-3-methylpiperazin-1-yl)-2-(tert-butoxy)ethan-1-one], the IC50 is reported as 1000 to 10000 nM. `C[C@@H]1CN(c2ncc(-c3ccc4nc5n(c4n3)C3(COC5)COc4ccccc43)cn2)CCN1C(=O)COC(C)(C)C` (stereo partly drawn) [BG.6, 1-((2R)-4-(5-(2H,6′H,8′H-Spiro[benzofuran-3,9′-pyrido[3′,2′:4,5]imidazo[2,1-c][1,4]oxazin]-2′-yl)pyrimidin-2-yl)-2-methylpiperazin-1-yl)-2-(tert-butoxy)ethan-1-one] showed an IC50 of under 1000 nM. With `C[C@H]1CN(C(=O)CO)CCN1c1ncc(-c2ccc3nc4n(c3n2)C2(COC4)COc3ccccc32)cn1` (some centres unmarked) [BH.1] the IC50 was under 1000 nM. In the case of `C[C@@H]1CN(C(=O)CO)CCN1c1ncc(-c2ccc3nc4n(c3n2)C2(COC4)COc3ccccc32)cn1` (some centres unmarked) [BH.2], the IC50 is reported as under 1000 nM. Molecule `C[C@@H]1CN(c2ncc(-c3ccc4nc5n(c4n3)C3(COC5)COc4ccccc43)cn2)CCN1C(=O)CO` (some centres unmarked) [BH.3] has an IC50 of under 1000 nM. `COC(C)(C)CC(=O)N1CC=C(c2ccc3nc4n(c3n2)C2(COC4)COc3ccccc32)CC1` (centres unmarked) [BI.1] was tested, and the IC50 was 1000 to 10000 nM. For `OC1CCN(c2ncc(-c3ccc4nc5n(c4n3)[C@@]3(COC5)COc4ccccc43)cn2)CC1` [BJ.1], the IC50 was under 1000 nM.

Same assay, conditions: Table BK; read-out: TNF IC50
Molecule `O[C@H]1CC[C@@H](COc2cc(-c3ccc4nc5n(c4n3)[C@@H](c3ccccc3)CC5)ccn2)CC1` [BK.1] has an IC50 of under 1000 nM. `O[C@H]1CC[C@H](COc2cc(-c3ccc4nc5n(c4n3)[C@@H](c3ccccc3)CC5)ccn2)CC1` [BK.2] gave an IC50 of 1000 to 10000 nM. `OC[C@H]1CC[C@H](COc2cc(-c3ccc4nc5n(c4n3)[C@@H](c3ccccc3)CC5)ccn2)CC1` [BK.3] was tested, and the IC50 was 1000 to 10000 nM.

Same assay, conditions: Table BL; read-out: TNF IC50
Work on `C[C@@H]1CN(c2ncc(-c3ccc4nc5n(c4n3)[C@@]3(COC5)COc4ccccc43)cn2)CCN1C(=O)CO` [BL.1] yielded an IC50 of under 1000 nM.

Same assay, conditions: Table BM; read-out: TNF IC50
`C[C@@H]1CN(c2ncc(-c3ccc4nc5n(c4n3)[C@]3(COC5)COc4ccccc43)cn2)CCN1C(=O)CO` [BM.1] gave an IC50 of 1000 to 10000 nM. `C[C@H]1CN(c2ncc(-c3ccc4nc5n(c4n3)[C@]3(COC5)COc4ccccc43)cn2)CCN1C(=O)CO` [BM.2] gave an IC50 of 1000 to 10000 nM.

Same assay, conditions: Table BN; read-out: TNF IC50
For `COC(=O)CC1CC=C(c2ccc3nc4n(c3n2)[C@@H](c2ccccc2)CC4)CC1` (some centres unmarked) [BN.1], the IC50 was 1000 to 10000 nM.

Same assay, conditions: Table BO; read-out: TNF IC50
Work on `OC1CCN(c2ncc(-c3ccc4nc5n(c4n3)C3(COCc4ccccc43)COC5)cn2)CC1` (centres unmarked) [BO.1] yielded an IC50 of 1000 to 10000 nM. For `O=C1NC[C@@H]2CN(c3ncc(-c4ccc5nc6n(c5n4)C4(COCc5ccccc54)COC6)cn3)CCN12` (some centres unmarked) [BO.2], the IC50 was under 1000 nM.

Same assay, conditions: Table BP; read-out: TNF IC50
With `c1ccc2c(c1)COCC21COCc2nc3ccc(-c4cnc(N5CCOCC5)nc4)nc3n21` (centres unmarked) [BP.1] the IC50 was 1000 to 10000 nM.

Same assay, conditions: Table BQ; read-out: TNF IC50
`CC(C)(N)c1ncc(-c2ccc3nc4n(c3n2)[C@@H](c2ccccc2)CC4)cn1` [BQ.1] showed an IC50 of 1000 to 10000 nM.

Same assay, conditions: fluorescence polarization competition; 20 nM TNFα trimer, 1 nM OregonGreen488 probe; read-out: TNF IC50 (TNFα FP binding assay IC50)
For `c1ccc([C@@H]2CCc3nc4ccc(-c5cnc(N6CCOCC6)nc5)cc4n32)cc1` [C.1], the IC50 was 10000 to 100000 nM. Work on `c1ccc([C@H]2CCc3nc4ccc(-c5cnc(N6CCOCC6)nc5)cc4n32)cc1` [D.3] yielded an IC50 of under 1000 nM. For `c1ccc(C2CCOc3nc4ccc(-c5cnc(N6CCOCC6)nc5)cn4c32)cc1` (centres unmarked) [D.4], the IC50 was 1000 to 10000 nM. In the case of `COc1ccccc1C1CCOc2nc3ccc(-c4cnc(N5CCOCC5)nc4)cn3c21` (centres unmarked) [D.5], the IC50 is reported as under 1000 nM. Work on `CC(C)(O)c1ncc(-c2ccc3nc4n(c3c2)C(c2ccccc2)CCC4)cn1` (centres unmarked) [E.1, 2-(5-(1-Phenyl-1,2,3,4-tetrahydrobenzo[4,5]imidazo[1,2-a]pyridin-8-yl)pyrimidin-2-yl)propan-2-ol] yielded an IC50 of under 1000 nM. For `CC(C)(O)c1ncc(-c2ccc3nc4n(c3c2)C(c2ccccc2O)CCC4)cn1` (centres unmarked) [E.2], the IC50 was 10000 to 100000 nM. Work on `COc1ccccc1C1CCc2nc3ccc(-c4cnc(C(C)(C)O)nc4)cc3n21` (centres unmarked) [E.3] yielded an IC50 of under 1000 nM. `CC(C)(O)c1ncc(-c2ccc3nc4n(c3n2)C2(COC4)COc3ccccc32)cn1` (centres unmarked) [E.4, 2-(5-(6′,8′-Dihydro-2H-spiro[benzofuran-3,9′-pyrido[3′,2′:4,5]imidazo[2,1-c][1,4]oxazin]-2′-yl)pyrimidin-2-yl)propan-2-ol] was tested, and the IC50 was under 1000 nM. With `CC(C)(O)c1ncc(-c2ccc3nc4n(c3n2)C2(CCOc3ccccc32)COC4)cn1` (centres unmarked) [E.5, 2-(5-(6′,8′-Dihydrospiro[chroman-4,9′-pyrido[3′,2′:4,5]imidazo[2,1-c][1,4]oxazin]-2′-yl)pyrimidin-2-yl)propan-2-ol] the IC50 was 1000 to 10000 nM. For `CC(C)(O)c1ncc(-c2ccc3nc4n(c3c2)C(c2ccccc2)CC4)cn1` (centres unmarked) [Example 1, 2-(5-(1-Phenyl-2,3-dihydro-1H-benzo[d]pyrrolo[1,2-a]imidazol-7-yl)pyrimidin-2-yl)propan-2-ol], the IC50 was under 1000 nM. With `CC(C)(O)c1ncc(-c2ccc3nc4n(c3c2)[C@@H](c2ccccc2)CC4)cn1` [Example 2, (R)-2-(5-(1-Phenyl-2,3-dihydro-1H-benzo[d]pyrrolo[1,2-a]imidazol-7-yl)pyrimidin-2-yl)propan-2-ol] the IC50 was under 1000 nM. Molecule `O=C1NCC2CN(c3ncc(-c4ccc5nc6n(c5c4)[C@@H](c4ccccc4)CC6)cn3)CCN12` (stereo partly drawn) [Example 3, 7-(5-((R)-1-Phenyl-2,3-dihydro-1H-benzo[d]pyrrolo[1,2-a]imidazol-7-yl)pyrimidin-2-yl)hexahydroimidazo[1,5-a]pyrazin-3(2H)-one] has an IC50 of under 1000 nM. Work on `OC1CCN(c2ncc(-c3ccc4nc5n(c4c3)[C@@H](c3ccccc3)COC5)cn2)CC1` [Example 4, (S)-1-(5-(4-Phenyl-3,4-dihydro-1H-benzo[4,5]imidazo[2,1-c][1,4]oxazin-7-yl)pyrimidin-2-yl)piperidin-4-ol] yielded an IC50 of under 1000 nM. `COc1ccccc1C1(O)CCCc2nc3ccc(-c4cnc(N5CCOCC5)nc4)cn3c21` (centres unmarked) [Example 5, 9-(2-Methoxyphenyl)-2-(2-morpholinopyrimidin-5-yl)-6,7,8,9-tetrahydrobenzo[4,5]imidazo[1,2-a]pyridin-9-ol] gave an IC50 of 1000 to 10000 nM. Work on `c1ccc(C2CCc3nc4ccc(-c5cnc(N6CCOCC6)nc5)nc4n32)cc1` (centres unmarked) [Example 6, 4-(5-(8-Phenyl-7,8-dihydro-6H-pyrrolo[2′,1′:2,3]imidazo[4,5-b]pyridin-2-yl)pyrimidin-2-yl)morpholine] yielded an IC50 of under 1000 nM. Molecule `CCOC(=O)CNc1ncc(-c2ccc3nc4c(n3c2)C(c2ccccc2OC)CCC4)cn1` (centres unmarked) [Example 7, Ethyl 2-[[5-[9-(2-methoxyphenyl)-6,7,8,9-tetrahydropyrido[1,2-a]benzimidazol-2-yl]pyrimidin-2-yl]amino]acetate] has an IC50 of under 1000 nM. `COc1ccccc1C1CCCc2nc3ccc(-c4cnc(NCC(=O)O)nc4)cn3c21` (centres unmarked) [Example 8, 2-((5-(9-(2-methoxyphenyl)-6,7,8,9-tetrahydrobenzo[4,5]imidazo[1,2-a]pyridin-2-yl)pyrimidin-2-yl)amino)acetic acid] gave an IC50 of 1000 to 10000 nM. `O=C1NCC2CN(c3ncc(-c4ccc5nc6n(c5c4)[C@@H](c4ccccc4)COC6)cn3)CCN12` (stereo partly drawn) [Example 9, 7-(5-((S)-4-Phenyl-3,4-dihydro-1H-benzo[4,5]imidazo[2,1-c][1,4]oxazin-7-yl)pyrimidin-2-yl)hexahydroimidazo[1,5-a]pyrazin-3(2H)-one] gave an IC50 of under 1000 nM. `COc1ccccc1C1CCc2nc3ccc(-c4cnc(C(C)(C)O)nc4)cn3c21` (centres unmarked) [Example 10, 2-(5-(1-(2-Methoxyphenyl)-2,3-dihydro-1H-cyclopenenta[4,5]imidazo[1,2-a]pyridin-7-yl)pyrimidin-2-yl)propan-2-ol] gave an IC50 of under 1000 nM. `COc1ccccc1[C@@H]1CCc2nc3ccc(-c4cnc(C(C)(C)O)nc4)cn3c21` [Example 11, (S)-2-(5-(1-(2-Methoxyphenyl)-2,3-dihydro-1H-cyclopenta[4,5]imidazo[1,2-a]pyridin-7-yl)pyrimidin-2-yl)propan-2-ol] gave an IC50 of 10000 to 100000 nM. Work on `COc1ccccc1[C@H]1CCc2nc3ccc(-c4cnc(C(C)(C)O)nc4)cn3c21` [Example 12, (R)-2-(5-(1-(2-methoxyphenyl)-2,3-dihydro-1H-cyclopenta[4,5]imidazo[1,2-a]pyridin-7-yl)pyrimidin-2-yl)propan-2-ol] yielded an IC50 of under 1000 nM. `CC(C)(O)c1ncc(-c2ccc3nc4n(c3c2)[C@@H](c2ccccc2OC(F)F)COC4)cn1` [Example 13, (S)-2-(5-(4-(2-(Difluoromethoxy)phenyl)-3,4-dihydro-1H-benzo[4,5]imidazo[2,1-c][1,4]oxazin-7-yl)pyrimidin-2-yl)propan-2-ol] showed an IC50 of under 1000 nM. Work on `COc1ccccc1C1=CCCc2nc3ccc(-c4cnc(N5CCOCC5)nc4)cn3c21` [Example 14, 4-(5-(9-(2-Methoxyphenyl)-6,7-dihydrobenzo[4,5]imidazo[1,2-a]pyridin-2-yl)pyrimidin-2-yl)morpholine] yielded an IC50 of 10000 to 100000 nM. Work on `COc1ccccc1C1CCCc2nc3ccc(-c4cnc(N5CCOCC5)nc4)cn3c21` (centres unmarked) [Example 15, 4-(5-(9-(2-Methoxyphenyl)-6,7,8,9-tetrahydrobenzo[4,5]imidazo[1,2-a]pyridin-2-yl)pyrimidin-2-yl)morpholine] yielded an IC50 of under 1000 nM.
